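Dose response: 5 concentrations. Exposure: 48 h. Format: 96-well plates. Endpoint: linear interpolation; highest concentration if not reached. Definition used: TGI = concentration required for complete inhibition of growth.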
What was measured:
Test in all cases: NCI-60 cell line screen, 48 h
[1] = test system: A549 NSCLC
[2] = test system: COLO 205 colon
[3] = test system: HOP-62 NSCLC
[4] = test system: IGROV1 ovarian
[5] = test system: MDA-N
[6] = test system: OVCAR-4 ovarian
[7] = test system: RPMI-8226 leukemia
[8] = test system: SF-539 CNS
[9] = test system: SN12C renal
[10] = test system: U251 CNS

Structure (SMILES)	TGI [1]	TGI [2]	TGI [3]	TGI [4]	TGI [5]	TGI [6]	TGI [7]	TGI [8]	TGI [9]	TGI [10]
CCOC(=O)Cc1cc(=O)[nH]c(-n2[nH]c(C)c(CCO)c2=O)n1	> 100 µM	> 100 µM	> 100 µM	> 100 µM	> 100 µM	> 100 µM	> 100 µM	> 100 µM	> 100 µM	> 100 µM
O=C(NNc1nc(-c2ccccc2)cs1)Nc1ccccc1	48 µM	56.4 µM	56.8 µM	> 100 µM	65.8 µM	88.5 µM	44.2 µM		97.8 µM	58.1 µM
CSc1c(C)n([O-])c2cc(Cl)c(Cl)cc2[n+]1=O	> 100 µM	41.7 µM	> 100 µM	30.8 µM	33.9 µM	30.6 µM	34.9 µM	> 100 µM	33.3 µM	46.3 µM
Cc1nccn1S(=O)(=O)c1ccc(Cl)cc1	> 100 µM	40.2 µM	> 100 µM	> 100 µM	51 µM	> 100 µM	> 100 µM	> 100 µM	> 100 µM	> 100 µM
COC(=O)/C=C\C(C#N)(C#N)N=Cc1ccc(Br)cc1	> 74.8 µM	9.55 µM	33.4 µM	37 µM	20.1 µM	23.7 µM	5.74 µM		17.8 µM	33.3 µM
O=C1c2cc3ncsc3cc2C(=O)c2c(O)ccc(O)c21	> 100 µM	> 100 µM	> 100 µM	> 100 µM	> 100 µM	> 100 µM	> 100 µM	> 100 µM	> 100 µM	> 100 µM
C=C1CC(O)C2C(=C)C(=O)OC2C2C(C)C(=O)CC12 (stereo unspecified)	41 µM	43.5 µM	42.7 µM	36.2 µM	20.3 µM	37.8 µM	39.2 µM	54.2 µM	29.9 µM	59.1 µM
Cc1ccc(S(=O)(=O)NC(=O)NC(CC(=O)O)C(=O)O)cc1 (stereo unspecified)	> 100 µM	> 100 µM	> 100 µM	> 100 µM	> 100 µM	> 100 µM	> 100 µM	> 100 µM	> 100 µM	> 100 µM
NC(=S)NS(=O)(=O)c1ccc(Cl)cc1	> 100 µM	> 100 µM	> 100 µM	> 100 µM	> 100 µM	> 100 µM	> 100 µM	> 100 µM	> 100 µM	> 100 µM
COc1cccc(N(CN2C(=O)CCC2OC)C(C)=O)c1 (stereo unspecified)	> 100 µM	> 100 µM	> 100 µM		> 100 µM	> 100 µM	> 100 µM	> 100 µM	> 100 µM	> 100 µM
CCCCOc1ccc(S(=O)(=O)/N=C(\NO)Nc2ccc(Cl)cc2)cc1	30.5 µM	35.7 µM	32.4 µM		31.6 µM	23.6 µM	50.9 µM	37 µM	31 µM	30.8 µM
Cc1cc(S(=O)(=O)Nc2n[nH]c(Nc3ccccc3)n2)c(SSc2cc(Cl)c(C)cc2S(=O)(=O)Nc2n[nH]c(Nc3ccccc3)n2)cc1Cl	> 100 µM	> 100 µM	> 100 µM	> 100 µM	> 100 µM	> 100 µM	> 100 µM	> 10 µM	> 100 µM	> 100 µM
Cn1c(-c2c(C3=CC(=O)N(c4ccccc4)C3=O)c3ccccc3n2C)cc2ccccc21	> 100 µM	> 100 µM	> 100 µM	> 100 µM	> 100 µM	> 100 µM	> 100 µM	> 100 µM	> 100 µM	> 100 µM
Cc1cc(O)c(C(C)C)cc1C(=S)Nc1ccc(Cl)cc1		31.5 µM	32.9 µM	15.9 µM	23.7 µM	20.2 µM	33 µM	29.6 µM		27.8 µM
O=C(CN1CCN(c2ccccn2)CC1)N1CCCn2c1nc1ccccc1c2=O	> 100 µM	> 100 µM	> 100 µM	> 100 µM	> 100 µM	> 100 µM	> 100 µM	> 100 µM	> 100 µM	> 100 µM
COC(=O)C(CNC(=O)/C=C/c1ccc(OC(C)=O)c(OC(C)=O)c1)NC(=O)/C=C/c1ccc(OC(C)=O)c(OC(C)=O)c1 (stereo unspecified)	> 100 µM	> 100 µM	> 100 µM	> 100 µM	> 100 µM	> 100 µM	> 100 µM	> 100 µM	> 100 µM	> 100 µM
Cc1ccc(C)c2c1n1c(=O)n(C)c(=O)n21	> 100 µM	> 100 µM		> 100 µM	> 100 µM	> 100 µM	> 100 µM	> 100 µM	> 100 µM	> 100 µM
O=c1[nH]c2ccc(C(F)(F)F)cc2nc1C(F)(F)F	> 100 µM	39.8 µM	55.5 µM	95.3 µM	> 100 µM	> 100 µM	> 100 µM	64.2 µM	87.6 µM	> 100 µM
CCOC(=O)CCC(NC(=O)c1ccc(Nc2nc3ccccc3nc2C(=O)OCC)s1)C(=O)OCC (stereo unspecified)	> 100 µM	> 100 µM		> 100 µM	> 100 µM	> 100 µM	> 100 µM	> 100 µM	> 100 µM	> 100 µM
CC(C)(C)OC(=O)NNCC(O)COc1ccccc1 (stereo unspecified)	> 100 µM	> 100 µM	> 100 µM	> 100 µM	> 100 µM	> 100 µM	> 100 µM	> 100 µM	> 100 µM	> 100 µM
NNS(=O)(=O)c1ccc(/C=C2\NC(=O)NC2=O)cc1	> 100 µM	> 100 µM	> 100 µM	> 100 µM	> 100 µM	> 100 µM	> 100 µM		> 100 µM	> 100 µM

Structure (SMILES)	TGI [1]	TGI [2]	TGI [3]	TGI [4]	TGI [5]	TGI [6]	TGI [7]	TGI [8]	TGI [9]	TGI [10]
CCOC(=O)CN1C(=O)C(=O)N(c2ccc(OC)c3ccccc23)C1=O	> 100 µM	> 100 µM	> 100 µM		> 100 µM	> 100 µM	> 100 µM	> 100 µM	> 100 µM	> 100 µM
O=C1Nc2ccccc2SC1=C(C(=O)c1ccccc1)C(=O)c1ccccc1	> 100 µM	> 88 µM	> 100 µM	> 100 µM	48.8 µM	> 100 µM	> 100 µM	> 100 µM	> 89.8 µM	> 100 µM
Fc1ccc2c(c1)nc1n2C(c2c(F)cccc2F)SC1 (stereo unspecified)	> 100 µM	> 100 µM	> 100 µM	> 100 µM	> 100 µM	> 100 µM	> 100 µM	> 100 µM	> 100 µM	> 100 µM
COc1ccc(/N=N/C(=NNC(=O)c2ccc(C)cc2)c2ccc(N(C)C)cc2)cc1	> 100 µM	> 85.8 µM	> 100 µM	> 100 µM	> 73.4 µM	> 100 µM	> 70.9 µM	> 100 µM	> 100 µM	> 100 µM
CC1=NN(c2nc(N)nc(-c3cc4ccccc4oc3=N)n2)C(C)(C)C1	41.3 µM	31.1 µM	37.2 µM	32.1 µM	31.2 µM	31.2 µM	42.6 µM	34.1 µM	43 µM	76.8 µM
CC(C)(CO)CNc1cc(Cl)nc(N)n1	> 100 µM	> 100 µM	> 100 µM	> 100 µM	> 100 µM	> 100 µM	> 100 µM	> 100 µM	> 100 µM	> 100 µM
CC1=NN2CCC(=O)N=C2S1	> 100 µM	> 100 µM	> 100 µM	> 100 µM	> 100 µM	> 100 µM	> 100 µM	> 100 µM	> 100 µM	> 100 µM
Cc1ccc2c(=O)cc(-c3cccc(F)c3)[nH]c2n1	> 100 µM	0.0567 µM	> 100 µM	> 100 µM	0.0362 µM	> 100 µM	> 19.8 µM	0.78 µM	> 100 µM	> 74.7 µM
CCN(CCC#N)C(=O)Nc1ccccc1	> 100 µM	> 100 µM	> 100 µM	> 100 µM	> 100 µM	> 100 µM	> 100 µM	> 100 µM	> 100 µM	> 100 µM
COc1ccc(/C=C2\OC(=O)C(Cl)=C2c2ccc(OC)c(Cl)c2)cc1	> 100 µM	> 100 µM	35.7 µM	> 100 µM	47.1 µM	51.8 µM	81.8 µM	33.2 µM		> 100 µM
Nc1ccn(CC(O)c2cc3ccccc3[nH]2)c(=O)n1 (stereo unspecified)	> 100 µM	> 100 µM	> 100 µM	> 100 µM	> 100 µM	> 100 µM	> 100 µM	> 100 µM	> 100 µM	> 100 µM
O=C1C=CC(=O)c2c(O)c(N(CCCl)CCCl)c(Cl)c(O)c21	> 10 µM	5.57 µM	> 10 µM	> 7.99 µM	5.79 µM	6.24 µM	> 10 µM	> 7.9 µM	> 7.71 µM	> 9.09 µM
O=C(O)C1CSC2(CCCN(Cc3ccccc3)C2)N1 (stereo unspecified)	> 100 µM	> 100 µM	> 100 µM	> 100 µM	> 100 µM	> 100 µM	> 34.4 µM	> 100 µM	> 100 µM	> 100 µM
CN1C/C(=C\c2cccs2)C(=O)/C(=C/c2cccs2)C1	> 100 µM	91.7 µM	> 100 µM	92.2 µM	61.7 µM	55.4 µM	32.3 µM		76.5 µM	30.7 µM
CCN(CC)CCNc1ccc([N+](=O)[O-])c2nc3ccc(OC)cc3c(N)c12	2.79 µM	1.65 µM	3.74 µM	1.21 µM	3.26 µM	1.91 µM	0.704 µM	3.27 µM	2.83 µM	3.06 µM
CC(C)OP(=O)(OC(C)C)/C(C#N)=C/c1c[nH]c2ccccc12	> 100 µM	> 100 µM	> 100 µM	> 100 µM	> 100 µM	> 100 µM	> 100 µM	> 100 µM	> 100 µM	> 100 µM
Nc1ccc(C(=O)O)cc1	> 100 µM	> 100 µM	> 100 µM	> 100 µM	> 100 µM	> 100 µM	> 100 µM	> 100 µM	> 100 µM	> 100 µM
Cc1ccc(C(=O)N/N=C(\N=Nc2ccccc2C(=O)O)c2ccc(N(C)C)cc2)cc1	> 100 µM	> 100 µM		> 100 µM	57.7 µM	> 100 µM	> 100 µM	> 100 µM	> 100 µM	> 100 µM
COC(=N)CCCl	> 100 µM	> 100 µM	> 100 µM	> 100 µM	> 100 µM	> 100 µM	> 100 µM	> 100 µM	> 100 µM	> 100 µM
Cc1ccsc1/C=N/Nc1cc(C)c2ccccc2n1	52.3 µM	20.9 µM	78.8 µM	6.33 µM	29.3 µM	72.2 µM	8.9 µM		34 µM	31.4 µM
CCCCCCCCCCOc1ccc(N=Nc2nnc(-c3ccc(OCCCCC)cc3)s2)cc1	> 100 µM	> 100 µM	> 100 µM	> 100 µM	> 100 µM	> 100 µM	> 100 µM	> 100 µM	> 100 µM	> 100 µM
